The source of these data is patent publication US20080096924A1, “Amorphous Composition” (ONO PHARMACEUTICAL CO., LTD., priority 2004, published 2008).

In brackets after ≈: the same amount, converted by molar mass.

Data set [1] is described as follows: Solubility in water. It counts as physicochemical. Conditions: crystals of compound (I) vs spray-dried amorphous powder with HPMCAS.
The target in data set [2] is CYP3A4 (Homo sapiens, UniProt P08684). The data set is described as follows: Metabolism by metabolic enzyme.
Sequence of CYP3A4 (P08684 whole entry): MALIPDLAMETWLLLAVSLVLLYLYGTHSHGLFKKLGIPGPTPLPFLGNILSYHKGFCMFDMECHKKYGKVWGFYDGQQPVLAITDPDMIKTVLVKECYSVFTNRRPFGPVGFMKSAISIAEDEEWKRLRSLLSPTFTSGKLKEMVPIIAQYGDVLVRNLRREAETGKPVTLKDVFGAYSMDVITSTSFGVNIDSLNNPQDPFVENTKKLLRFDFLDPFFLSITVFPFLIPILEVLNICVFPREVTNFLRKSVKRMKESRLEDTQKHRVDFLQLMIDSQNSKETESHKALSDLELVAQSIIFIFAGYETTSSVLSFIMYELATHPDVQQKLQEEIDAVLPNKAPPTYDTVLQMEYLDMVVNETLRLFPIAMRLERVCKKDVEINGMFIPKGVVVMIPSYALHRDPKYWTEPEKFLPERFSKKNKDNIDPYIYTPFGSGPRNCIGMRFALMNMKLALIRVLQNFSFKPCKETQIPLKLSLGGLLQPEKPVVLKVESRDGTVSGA
The nature of data set [3]: Bioavailability on oral administration. The conditions noted are these: in vivo, orally administered, read-out: bioavailability (BA).
Data set [4] deals with N-type calcium channel (Homo sapiens, UniProt Q00975). Conditions: refer to Patent Document 1; cited from earlier work.
Sequence of N-type calcium channel (Q00975 whole entry): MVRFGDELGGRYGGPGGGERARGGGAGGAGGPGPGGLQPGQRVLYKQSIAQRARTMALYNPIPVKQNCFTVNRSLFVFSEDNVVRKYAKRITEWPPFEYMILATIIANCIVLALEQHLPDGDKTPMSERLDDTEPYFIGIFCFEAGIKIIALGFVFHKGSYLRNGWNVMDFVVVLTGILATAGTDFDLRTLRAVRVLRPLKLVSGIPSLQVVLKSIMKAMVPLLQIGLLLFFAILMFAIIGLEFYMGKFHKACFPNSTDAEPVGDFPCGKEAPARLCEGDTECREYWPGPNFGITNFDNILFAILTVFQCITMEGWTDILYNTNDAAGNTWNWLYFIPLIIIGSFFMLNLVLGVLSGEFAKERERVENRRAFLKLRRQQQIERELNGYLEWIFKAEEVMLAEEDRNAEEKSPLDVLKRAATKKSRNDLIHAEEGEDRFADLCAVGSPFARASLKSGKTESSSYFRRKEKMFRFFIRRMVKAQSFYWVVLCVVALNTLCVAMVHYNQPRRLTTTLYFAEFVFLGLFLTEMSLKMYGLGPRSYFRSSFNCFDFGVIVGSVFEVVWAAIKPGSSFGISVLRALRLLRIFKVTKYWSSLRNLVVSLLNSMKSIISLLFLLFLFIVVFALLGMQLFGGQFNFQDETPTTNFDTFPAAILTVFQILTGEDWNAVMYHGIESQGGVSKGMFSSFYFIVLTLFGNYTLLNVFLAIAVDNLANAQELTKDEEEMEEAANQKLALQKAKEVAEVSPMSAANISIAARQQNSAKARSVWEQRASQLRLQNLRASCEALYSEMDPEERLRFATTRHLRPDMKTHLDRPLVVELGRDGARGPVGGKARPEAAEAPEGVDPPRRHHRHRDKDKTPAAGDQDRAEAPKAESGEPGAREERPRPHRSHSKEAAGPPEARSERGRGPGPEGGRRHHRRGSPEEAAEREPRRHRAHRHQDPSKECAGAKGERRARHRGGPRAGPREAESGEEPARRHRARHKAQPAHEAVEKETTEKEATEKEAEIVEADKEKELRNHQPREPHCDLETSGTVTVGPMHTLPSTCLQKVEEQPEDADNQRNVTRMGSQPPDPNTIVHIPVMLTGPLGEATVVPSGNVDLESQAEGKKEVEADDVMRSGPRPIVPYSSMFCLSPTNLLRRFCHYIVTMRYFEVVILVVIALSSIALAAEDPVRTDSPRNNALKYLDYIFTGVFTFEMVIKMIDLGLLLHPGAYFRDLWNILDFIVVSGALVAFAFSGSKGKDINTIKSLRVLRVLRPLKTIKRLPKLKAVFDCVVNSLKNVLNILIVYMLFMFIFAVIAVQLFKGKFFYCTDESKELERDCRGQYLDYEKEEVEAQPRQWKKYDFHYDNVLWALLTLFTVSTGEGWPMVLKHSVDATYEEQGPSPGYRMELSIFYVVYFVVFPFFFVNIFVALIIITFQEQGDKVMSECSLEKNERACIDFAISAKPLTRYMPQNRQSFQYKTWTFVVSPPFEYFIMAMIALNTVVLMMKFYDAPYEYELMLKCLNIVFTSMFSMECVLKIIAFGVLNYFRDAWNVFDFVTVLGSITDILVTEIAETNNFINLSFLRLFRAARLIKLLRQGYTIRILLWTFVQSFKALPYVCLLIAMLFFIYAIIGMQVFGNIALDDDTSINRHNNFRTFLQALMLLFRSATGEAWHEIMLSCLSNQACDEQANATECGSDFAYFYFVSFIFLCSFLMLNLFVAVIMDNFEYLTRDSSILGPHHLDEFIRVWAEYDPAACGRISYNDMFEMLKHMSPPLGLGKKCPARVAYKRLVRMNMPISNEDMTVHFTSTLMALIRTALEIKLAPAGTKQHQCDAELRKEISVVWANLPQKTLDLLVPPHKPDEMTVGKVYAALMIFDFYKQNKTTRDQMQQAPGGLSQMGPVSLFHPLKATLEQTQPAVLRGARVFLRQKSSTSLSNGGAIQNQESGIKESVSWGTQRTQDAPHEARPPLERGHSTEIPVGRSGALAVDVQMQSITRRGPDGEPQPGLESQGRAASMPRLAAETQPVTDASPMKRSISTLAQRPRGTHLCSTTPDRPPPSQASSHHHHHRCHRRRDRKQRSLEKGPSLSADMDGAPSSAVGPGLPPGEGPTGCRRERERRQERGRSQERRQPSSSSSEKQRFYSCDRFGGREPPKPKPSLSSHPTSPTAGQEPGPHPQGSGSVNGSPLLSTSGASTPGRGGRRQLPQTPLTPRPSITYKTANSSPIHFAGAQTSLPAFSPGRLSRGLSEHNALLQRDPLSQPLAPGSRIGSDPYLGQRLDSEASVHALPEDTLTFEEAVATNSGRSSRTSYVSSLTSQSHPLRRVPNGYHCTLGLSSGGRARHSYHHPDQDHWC

Take `CC(C)(C)OC(=O)N1CSC[C@H]1C(=O)N[C@@H](CSCC1CCCCC1)C(=O)NC1CCN(Cc2ccccc2)CC1` [compound (I), (2R)—N-(1-benzylpiperidin-4-yl)-3-cyclohexylmethylthio-2-[(4R)-3-tert-butoxycarbonylthiazolidin-4-ylcarbonylamino]propaneamide]: in data set [1], the solubility is roughly 1.25 µg/mL (≈ 2.07 µM). Also, the metabolic enzyme entry in data set [2] is on record as “metabolized by CYP3A4”. For the same compound, the bioavailability in data set [3] is roughly 0.2%. Also, the “N-type calcium channel inhibiting activity” value in data set [4] is on record as “N-type calcium channel inhibiting activity”.

In general, solubility refers to how much of the substance goes into solution per volume. A low value points to a poorly soluble substance. As usually defined, the bioavailability is the share of a dose that reaches the circulation, judged against a reference dose that is usually intravenous.
